Assay results reported in patent publication US20220315574A1, “Beta-Arrestin-Modulating Compounds and Methods of Using Same” (Duke University, priority 2019, published 2022).

Columns and labels:
[1] = molecular target: T1, βarr2 recruitment to agonist-activated β2V2R (Homo sapiens, UniProt P32121); assay: DiscoveRx PathHunter β-arrestin recruitment assay in U2OS cells; type: cell-based; settings: series of compound concentrations, 30 min pretreatment, isoproterenol dose-response
T1 construct: host or cells: U2OS
T1 sequence (P32121 whole entry): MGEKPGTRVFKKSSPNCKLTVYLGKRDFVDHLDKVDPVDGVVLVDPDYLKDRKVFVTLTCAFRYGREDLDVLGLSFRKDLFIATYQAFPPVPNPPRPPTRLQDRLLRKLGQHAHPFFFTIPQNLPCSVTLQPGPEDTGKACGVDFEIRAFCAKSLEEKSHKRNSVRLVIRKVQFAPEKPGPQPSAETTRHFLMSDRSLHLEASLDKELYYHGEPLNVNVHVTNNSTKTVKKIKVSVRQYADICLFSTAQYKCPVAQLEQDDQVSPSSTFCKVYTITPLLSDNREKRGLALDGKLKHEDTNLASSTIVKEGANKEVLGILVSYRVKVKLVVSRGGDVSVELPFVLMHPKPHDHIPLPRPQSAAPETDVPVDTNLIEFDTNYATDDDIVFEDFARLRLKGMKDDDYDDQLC
Procedure: β-arrestin recruitment to the agonist-activated receptor (02V2R) was measured using the DiscoveRx PathHunter β-arrestin assay (Ahn, S. et al. Allosteric “beta-blocker” isolated from a DNA-encoded small molecule library. Proc Natl Acad Sci U SA 114, 1708-1713, doi:10.1073/pnas.1620645114 (2017)). […] Agonist-stimulated recruitment of βarr2 to the receptor results in the formation of functionally active β-gal enzyme. Addition of substrate generates a chemiluminescence signal directly correlated to the extent of recruitment. U2OS cells co-expressing β2V2R and βarr2 were plated in 96-well clear-bottomed plates at a density of 25,000 cells per well (80 μL per well), 24 hours prior to compound treatment. On the day of experiment, cells were first treated with compound or vehicle for 30 min, followed by agonist (Iso) stimulation for 60 min at 37° C. Cells were then treated with PathHunter™ detection reagents for 90 min at 37° C., and luminescence signals were measured using a CLARIOstar microplate reader (BMG Labtech Inc., Cary, N.C.).

[2] = molecular target: βarr2 (Rattus norvegicus, UniProt P29067); assay: Negative-stain electron microscopy, 2D class averages of βarr2; design: final βarr2 (truncated βarr2 at 394) concentration of ˜1 mg/mL; made in house; settings: control βarr 97% monomeric
Sequence of βarr2 (P29067 1-394): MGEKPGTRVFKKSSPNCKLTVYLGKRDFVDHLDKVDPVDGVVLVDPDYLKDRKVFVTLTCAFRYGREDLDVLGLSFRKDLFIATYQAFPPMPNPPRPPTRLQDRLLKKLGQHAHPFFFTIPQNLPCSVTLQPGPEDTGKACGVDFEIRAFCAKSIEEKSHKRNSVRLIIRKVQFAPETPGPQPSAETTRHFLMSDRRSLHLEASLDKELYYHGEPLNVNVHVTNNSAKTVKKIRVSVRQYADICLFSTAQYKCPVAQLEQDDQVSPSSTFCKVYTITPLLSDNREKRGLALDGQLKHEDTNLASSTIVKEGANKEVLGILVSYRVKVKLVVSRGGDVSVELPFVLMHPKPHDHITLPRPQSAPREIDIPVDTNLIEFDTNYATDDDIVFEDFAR
Procedure: To prepare for EM visualization of the architecture and structural organization of βarr2-Cmpd30 complexes, purified βarr2 (394) was diluted to 0.5 μM and incubated with 5 μM Cmpd-30 or vehicle (DMSO) in HN buffer (20 mM HEPES pH 7.4 and 150 mM NaCl) for 7 min at room temperature followed by dilution 10× into HN buffer containing 1 μM Cmpd-30, before negative staining. The positive control, βarr2 bound to IP6 sample was prepared similarly (5 μM and 250 μM, respectively) and was diluted 100× into HN buffer containing 10 μM IP6. Grids were prepared using conventional negative-staining protocols as described previously (Peisley, A. & Skiniotis, G. 2D Projection Analysis of GPCR Complexes by Negative Stain Electron Microscopy. Methods Mol Biol 1335, 29-38, doi:10.1007/978-1-4939-2914-6_3 (2015). Briefly, 3 μL of samples were applied onto a glow-discharged EM carbon-coated copper grid, adsorbed on the grid surface, blotted, stained, and air dried before imaging. EM grids were examined with a FEI Tecnai G2 Twin electron microscope and operated at an acceleration voltage of 120 kV. Images were recorded with an Eagle 2K CCD camera at a magnification of ×65,200 and a defocus value of ˜1.5 μm. Two-dimensional EM reference-free alignment and classification of particle projections were performed with the iterative stable alignment and clustering procedure (ISAC)(Yang, Z., et al., Iterative stable alignment and clustering of 2D transmission electron microscope images. Structure 20, 237-247, doi:10.1016/j.str.2011.12.007 (2012)). EM single particles were both automatically and manually selected using Boxer (part of the EMAN 2.1 software suite)(Tang, G. et EMAN2: an extensible image processing suite for electron microscopy. J Struct Biol 157, 38-46, doi:10.1016/j.jsb.2006.05.009 (2007)). A total of ˜250,000 0° particles projections were picked representing all the three βarr2 samples (with vehicle, Cmpd-30 or IP6) and windowed into 96×96-pixel images (with the RELION 2.1-beta-1 software package) and subjected to ISAC. […]

Row | maximal agonist induced βarr recruitment response [1] | class averages represented as homo-oligomers (dimers/trimers) [2] [%] | SMILES
1 | significantly diminished |  | COc1cc(Cc2nccc3cc(OC)c(OC)cc23)c(C(C)=O)cc1OC [C29, 1-[2-[(6,7-dimethoxyisoquinolin-1-yl)methyl]-4,5-dimethoxyphenyl]ethanone]
2 |  | 100 | O=P(O)(O)OC1C(OP(=O)(O)O)C(OP(=O)(O)O)C(OP(=O)(O)O)C(OP(=O)(O)O)C1OP(=O)(O)O (centres unmarked) [IP6, inositol hexakisphosphate, reference compound]
